This is an account of results in paper PMC10384408, “Anticancer Tungstenocenes with a Diverse Set of (O,O–), (O,S–) and (O,N–) Chelates—A Detailed Biological Study Using an Improved Evaluation via 3D Spheroid Models” (Pharmaceutics, 2023).

Data set [1] deals with IMR-90 human lung fibroblasts. The data set can be described thus: MTT cytotoxicity assay, IMR-90 fibroblasts. It counts as cell-based. Particulars: exposure time 96 h, mean ± SD. Here is the method: CH1/PA-1 (ovarian teratocarcinoma), SW480 (colon carcinoma) and A549 (non-small cell lung cancer) cells were maintained as described in the reference. IMR-90 human fetal lung fibroblasts (from the European Collection of Authenticated Cell Cultures, Porton Down, Salisbury, UK) were cultured in Stable Cell^TM DMEM/F12 supplemented with 0.01 mg/mL human recombinant insulin (both purchased from Sigma-Aldrich) and 10% fetal bovine serum (FBS, BioWest, Nuaillé, France). Human colon carcinoma cell lines HCT116 and HT29 (both kindly provided by the Institute of Cancer Research, Department of Medicine I, Medical University of Vienna, Austria) were cultured in McCoy’s 5a medium supplemented with 4 mM L-glutamine (both purchased from Sigma-Aldrich) and 10% FBS. MCF-7 human breast adenocarcinoma cells (kindly provided by M. Ogris, Department of Pharmaceutical Sciences, University of Vienna, Austria) were maintained in DMEM (high glucose) supplemented with 4 mM L-glutamine, 0.1 mg/mL human insulin (all purchased from Sigma-Aldrich) and 10% FBS. All cell lines were grown as monolayers in 75 cm^2 culture flasks (CytoOne, Starlab, Hamburg, Germany) at 37 °C in a humidified atmosphere containing 5% CO2.
Exponentially growing cells were plated into 96-well microculture plates (CytoOne, tissue culture treated, Starlab, Hamburg, Germany) in densities of 1 × 10^3 CH1/PA-1, 2 × 10^3 SW480, 3 × 10^3 A549 and 7 × 10^3 IMR-90 cells per well (each in 100 µL). After a 24 h preincubation, drugs were added in serial dilution to give a final volume of 200 µL/well and exposed for 96 h. At the end of the exposure, the drug solutions were replaced by 100 µL RPMI 1640/MTT mixture (7:1 ratio). MTT (3-(4,5-dimethylthiazol-2-yl)-2,5-diphenyl-2H-tetrazolium bromide), (Acros Organics, Geel, Belgium) solution was prepared in phosphate-buffered saline (5 mg/mL) and mixed with RPMI1640 medium supplemented with 4 mM L-glutamine (both from Sigma-Aldrich) and 10% FBS. After 4 h incubation, the formazan crystals were solubilized in 150 µL of DMSO per well. Absorbance was measured at 550 nm (and at 690 nm as a reference) with a microplate reader (ELx808, BioTek, Winoosky, VT, USA) and Gen5^TM 3.08 software (BioTek). The 50% inhibitory concentrations (IC50) relative to untreated controls were interpolated from concentration-effect curves. At least three biologically and technically independent experiments were performed.

For data set [2], the system named is HCT116, HT29 and MCF-7 cell lines. The data set can be described thus: ROS detection (DCFH-DA assay). In kind it is cell-based, human. To be noted: 2, 20, 100 and 200 µM, 2 h. Here is the method: Reactive oxygen species (ROS) generation was measured by means of the DCFH-DA assay. […] On the following day, cells were washed with 200 µL Hanks’ balanced salt solution (HBSS, Sigma-Aldrich, containing 1% FBS) and stained with 100 µL of 25 µM DCFH-DA (2′,7′-dichlorofluorescein diacetate, Sigma-Aldrich) in HBSS (containing 1% FBS) for 45 min at 37 °C in the dark. After the incubation period, cells were washed with 200 µL HBSS (1% FBS) and loaded with compounds at concentrations of 2 µM, 20 µM, 100 µM and 200 µM in 200 µL phenol-red-free MEM (1% FBS) in triplicates. As positive controls, cells were treated with 200 µM and 400 µM tert-butylhydroperoxide (Sigma-Aldrich). Wells containing only phenol-red-free medium with 1% FBS were used as blanks, and non-drug treated, cell containing wells as reference values. Fluorescence (excitation: 485/20 nm, emission: 516/20 nm) was recorded in 10 min intervals with the Synergy HT reader (BioTek) over 2 h.

Data set [3] can be described thus: Aqueous stability by UV/Vis in PBS. To be noted: 24 h, 293 K, 1 vol% DMSO. It counts as physicochemical. Here is the method:
Stock solutions in DMSO of compounds 1–10 were utilized to determine the solubility in PBS by adding 1 vol% of the stock solution to a suitable amount of PBS. […] UV/Vis data were recorded on a Perkin Elmer Lambda 650 UV/Vis Spectrophotometer with a Peltier element for temperature control.
In order to examine the stability of the compounds in aqueous solution, UV/Vis measurements were performed every hour during 24 h at 293 K. Solutions of compounds 1–10 were prepared in PBS (10%) from a previously prepared DMSO stock solution of each compound. The total concentration of DMSO was 1 vol% for the final complex solutions of 1–10.

Data set [4] concerns HCT116 spheroids. Description: KI67 immunofluorescence staining of cryo-sectioned spheroids. In kind it is cell-based, human. To be noted: 72 h; for KI67+ cells: untreated control 38.1 ± 7.3 %. Here is the method:
Spheroids were grown and cryosectioned, as described in the section above. For immunofluorescence staining the samples were fixed with 4% PFA (in PBS) for 15 min. The slides were washed with PBS before permeabilization with 0.1% Triton-X (Sigma-Aldrich, Steinheim, Germany) for 10 min. After three times washing with PBS the samples were stained for 45 min with 10% goat serum (G9023, Sigma-Aldrich) und 5% BSA for avoiding non-specific antibody binding. After one washing step a primary antibody against Ki67 (#9129, Cell Signaling Technology) was applied and samples incubated overnight at 4 °C. On the next day, slides were washed with PBS and incubated with goat anti-rabbit Alexa Fluor 594 (#8889 Cell Signaling Technology) for 1 h at room temperature in the dark, followed by two washing steps with PBS. Slides were mounted with ProlonGold Antifade Reagent with DAPI (Invitrogen, Thermo Fisher) and analyzed with a confocal laser scanning microscope Zeiss LSM800 (Zeiss, Jena, Germany). Images were processed with Zen software (Zeiss). For fluorescence signal intensities data extraction ImageJ/Fiji1.46 was used. For quantification, the maximum signal intensity of the KI67^+ cells was evaluated relative to the untreated control. For statistical analysis the t-test with Welsh’s correction was implemented in GraphPad Prism software (Version 6.01).

For data set [5], the system named is HT29 spheroids. The data set can be described thus: Spheroid growth, HT29. In kind it is cell-based, human. To be noted: 10 µM, 96 h treatment. Here is the method: (§1) For growing multicellular tumor spheroids, 400 HCT116, 400 HT29 or 800 MCF-7 cells per well were plated into round-bottom ultra-low attachment 96-well plates (Corning, Glendale, AZ, USA) in the media described above and incubated at 37 °C for 96 h. Spheroids were treated with 10 µM of the two most cytotoxic compounds 3 and 4 for another 96 h. The diameters of the spheroids were measured with Cell^F software under a CKX41 Olympus microscope before treatment and in constant daily intervals over the 96 h treatment period. For statistical analysis the t-test with Welsh’s correction was implemented in GraphPad Prism software (Version 6.01).

Data set [6] deals with MCF-7 spheroids. Description: Spheroid growth, MCF-7. It counts as cell-based, human. Particulars: 10 µM, 96 h treatment. Here is the method: as §1

In data set [1], `Cc1occc(=S)c1[O-].F[P-](F)(F)(F)(F)F.[W+4].c1cc[cH-]c1.c1cc[cH-]c1` [Compound 2, Bis(η^5-cyclopentadienyl)[2-methyl-3-(oxo-κO)-4-(1H)-pyran-4-thionato-κS]tungsten(IV) hexafluorophosphate] had an IC50 of 107 ± 30 µM.

In the case of `F[P-](F)(F)(F)(F)F.O=c1c([O-])c(-c2ccc(Cl)cc2)oc2ccccc12.[W+4].c1cc[cH-]c1.c1cc[cH-]c1` [Compound 3, Bis(η^5-cyclopentadienyl)[2-(4-chlorophenyl)-3-(oxo-κO)-4(H)-chromen-4-oato-κO]tungsten(IV) hexafluorophosphate], the “intracellular ROS levels” value in data set [2] was “Pronounced elevation of ROS levels”. The “precipitation in PBS” value in data set [3] was “slowly precipitate out of the solution over time”. Also, the “reduction in number of KI67+ cells relative to untreated control” value in data set [4] (20 µM) is on record as 2.4 fold. Moreover, the “KI67+ cells” value in data set [4] (20 µM) is listed as 15.8 ± 2.8%. Also, the spheroid growth entry in data set [5] and in data set [6] was “completely stop spheroid growth” in each case. The compound also came in with an IC50 in data set [1] of 38.2 ± 0.4 µM.

Regarding `F[P-](F)(F)(F)(F)F.[O-]c1c(-c2ccc(Cl)cc2)oc2ccccc2c1=S.[W+4].c1cc[cH-]c1.c1cc[cH-]c1` [Compound 4, Bis(η^5-cyclopentadienyl)[2-(4-chlorophenyl)-3-(oxo-κO)-4(H)-chromen-4-thionato-κS]tungsten(IV) hexafluorophosphate], the “intracellular ROS levels” value in data set [2] is “concentration-dependent anti-oxidative properties”. In addition, the “precipitation in PBS” value in data set [3] was “slowly precipitate out of the solution over time”. In data set [4] (15 µM), the “reduction in number of KI67+ cells relative to untreated control” value is given as 2 fold and the “KI67+ cells” value was 19.1 ± 1.3%. For the same compound, the spheroid growth entry in data set [5] is listed as “completely stop spheroid growth”. Also, in data set [6], the spheroid growth result is listed as “completely stop spheroid growth”. Besides, the IC50 in data set [1] came to 11 ± 2 µM.

For `Cc1cc(=O)c([O-])co1.F[P-](F)(F)(F)(F)F.[W+4].c1cc[cH-]c1.c1cc[cH-]c1` [Compound 7, Bis(η^5-cyclopentadienyl)[2-methyl-5-(oxo-κO)-4-(1H)-pyran-4-ato-κO] tungsten(IV) hexafluorophosphate], the “precipitation in PBS” value in data set [3] was “slowly precipitate out of the solution over time”.

Take `Cc1cc(=S)c([O-])co1.F[P-](F)(F)(F)(F)F.[W+4].c1cc[cH-]c1.c1cc[cH-]c1` [Compound 8, Bis(η^5-cyclopentadienyl)[2-methyl-5-(oxo-κO)-pyran-4-(1H)-thionato-κS] tungsten(IV) hexafluorophosphate]: the “precipitation in PBS” value in data set [3] was “slowly precipitate out of the solution over time”.

Take `CCc1occc(=O)c1[O-].F[P-](F)(F)(F)(F)F.[W+4].c1cc[cH-]c1.c1cc[cH-]c1` [Compound 9, Bis(η^5-cyclopentadienyl)[2-ethyl-3-(oxo-κO)-4-(1H)-pyran-4-ato-κO] tungsten(IV) hexafluorophosphate]: in data set [2], the “intracellular ROS levels” value is listed as “Pronounced elevation of ROS levels”.

Turning to `CCc1occc(=S)c1[O-].F[P-](F)(F)(F)(F)F.[W+4].c1cc[cH-]c1.c1cc[cH-]c1` [Compound 10, Bis(η^5-cyclopentadienyl)[2-ethyl-3-(oxo-κO)-4-(1H)-pyran-4-thionato-κS] tungsten(IV) hexafluorophosphate], in data set [2], the “intracellular ROS levels” value is on record as “relevant ROS generation”. For the same compound, the “precipitation in PBS” value in data set [3] is “slowly precipitate out of the solution over time”. Also, the IC50 in data set [1] was determined as 114 ± 33 µM.
